The source made the active and inactive calls. No cut-off for these calls is given here.
What was measured:
[1] = target: Histone acetyltransferase p300 (Homo sapiens, UniProt Q09472); assay: Inhibition of MSGRGK(Ac)-GGK(Ac)GLGK(Ac)GGAKRHR-biotin binding to EP300 (1040 to 1160 residues) (unknown origin) expressed in Escherichia coli BL21 (DE3) by Alphascreen assay
[2] = target: T1, Bromodomain-containing protein 4 (Homo sapiens, UniProt O60885)
Description: Binding affinity to N-terminal His6-tagged BRD4 bromodomain 1 (49 to 170 residues) (unknown origin) expressed in Escherichia coli BL21 (DE3) assessed as change in melting temperature at 1:100 molar ratio by SYPRO orange dye based fluorescence thermal shift assay

[3] = target: T1, Bromodomain-containing protein 4; assay: (§1) Inhibition of SGRG-K(Ac)-GG-K(Ac)-GLG-K(Ac)-GGA-K(Ac)-RHRKVGG-K-Biotin binding to N-terminal His6-tagged BRD4 bromodomain 1 (49 to 170 residues) (unknown origin) expressed in Escherichia coli BL21 (DE3) preincubated for 15 mins followed by biotin-labeled H4 peptide addition and measured after 10 mins by Alphascreen assay
[4] = target: T1, Bromodomain-containing protein 4; assay: as §1, with “2 (344” for “1 (49”, “455” for “170”
MV4-11 [5] = assay: Antiproliferative activity against human MV4-11 cells assessed as reduction in cell viability measured after 72 hrs by Celltitre-glo luminescence assay; assay type: functional, cell-based; conditions: MV4-11, 72 h
[6] = Clearance in human liver microsomes at 0.1 uM preincubated for 10 mins followed by NADPH addition and measured up to 60 mins by LC-MS/MS analysis; assay type: ADME, Microsome; conditions: 1 h
[7] = Clearance in rat liver microsomes at 0.1 uM preincubated for 10 mins followed by NADPH addition and measured up to 60 mins by LC-MS/MS analysis; assay type: ADME, Microsome; conditions: 1 h
[8] = Clearance in mouse liver microsomes at 0.1 uM preincubated for 10 mins followed by NADPH addition and measured up to 60 mins by LC-MS/MS analysis; assay type: ADME, Microsome; conditions: 1 h
[9] = Half life in human liver microsomes at 0.1 uM preincubated for 10 mins followed by NADPH addition and measured up to 60 mins by LC-MS/MS analysis; assay type: ADME, Microsome
[10] = Half life in rat liver microsomes at 0.1 uM preincubated for 10 mins followed by NADPH addition and measured up to 60 mins by LC-MS/MS analysis; assay type: ADME, Microsome
[11] = Half life in mouse liver microsomes at 0.1 uM preincubated for 10 mins followed by NADPH addition and measured up to 60 mins by LC-MS/MS analysis; assay type: ADME, Microsome
[12] = target: T1, Bromodomain-containing protein 4; assay: Inhibition of BRD4 (unknown origin)
Kasumi 1 = assay: Antiproliferative activity against human Kasumi-1 cells assessed as reduction in cell viability measured after 72 hrs by Celltitre-glo luminescence assay; assay type: functional, cell-based; conditions: Kasumi 1, 72 h
RS4-11 = assay: Antiproliferative activity against human RS4:11 cells assessed as reduction in cell viability measured after 72 hrs by Celltitre-glo luminescence assay; assay type: functional, cell-based; conditions: RS4-11, 72 h
MM1.S = assay: Antiproliferative activity against human MM1S cells assessed as reduction in cell viability measured after 72 hrs by Celltitre-glo luminescence assay; assay type: functional, cell-based
MV4-11 [13] = assay: Cell cycle arrest in human MV4-11 cells assessed as increase in accumulation at G1-phase at 125 nM measured after 24 hrs by propidium iodide staining based flow cytometry; assay type: functional
MV4-11 [14] = assay: Antitumor activity against human MV4-11 cells xenografted in mouse assessed as tumor growth inhibition at 50 mg/kg, po administered for 28 days and measured every 2 to 3 days during compound dosing relative to control; assay type: functional; conditions: MV4-11, po, read-out: TGI
[15] = Half life in Sprague-Dawley rat at 3 mg/kg, po by LC-MS/MS analysis; assay type: ADME, organism-based; conditions: in vivo
[16] = Cmax in Sprague-Dawley rat at 3 mg/kg, po by LC-MS/MS analysis; assay type: ADME, organism-based; design: dose 3 mg/kg, route oral; conditions: in vivo
[17] = AUC (0 to t) in Sprague-Dawley rat at 3 mg/kg, po by LC-MS/MS analysis; assay type: ADME, organism-based; conditions: in vivo
[18] = Oral bioavailability in Sprague-Dawley rat at 3 mg/kg by LC-MS/MS analysis; assay type: ADME, organism-based; conditions: in vivo
[19] = Half life in Sprague-Dawley rat at 1 mg/kg, iv by LC-MS/MS analysis; assay type: ADME, organism-based; conditions: in vivo
[20] = Volume of distribution at steady state in Sprague-Dawley rat at 1 mg/kg, iv by LC-MS/MS analysis; assay type: ADME, organism-based; conditions: in vivo, read-out: Vdss
[21] = AUC (0 to t) in Sprague-Dawley rat at 1 mg/kg, iv by LC-MS/MS analysis; assay type: ADME, organism-based; conditions: in vivo
[22] = Clearance in Sprague-Dawley rat at 1 mg/kg, iv by LC-MS/MS analysis; assay type: ADME, organism-based; conditions: in vivo
[23] = target: T1, Bromodomain-containing protein 4; assay: Inhibition of HSGRGK(Ac)GGK(Ac)GLGK(Ac)GGAK(Ac)RHRK(Biotin)-OH binding to recombinant human His6-tagged BRD4 bromodomain 1 expressed in Escherichia coli BL21 (DE3)-R3-pRARE2 cells preincubated for 30 mins followed by HSGRGK(Ac)GGK(Ac)GLGK(Ac)GGAK(Ac)RHRK(Biotin)-OH addition and measured after 30 mins by Alphascreen assay

Sequence of Histone acetyltransferase p300 (Q09472 whole entry, the tested form may be a part): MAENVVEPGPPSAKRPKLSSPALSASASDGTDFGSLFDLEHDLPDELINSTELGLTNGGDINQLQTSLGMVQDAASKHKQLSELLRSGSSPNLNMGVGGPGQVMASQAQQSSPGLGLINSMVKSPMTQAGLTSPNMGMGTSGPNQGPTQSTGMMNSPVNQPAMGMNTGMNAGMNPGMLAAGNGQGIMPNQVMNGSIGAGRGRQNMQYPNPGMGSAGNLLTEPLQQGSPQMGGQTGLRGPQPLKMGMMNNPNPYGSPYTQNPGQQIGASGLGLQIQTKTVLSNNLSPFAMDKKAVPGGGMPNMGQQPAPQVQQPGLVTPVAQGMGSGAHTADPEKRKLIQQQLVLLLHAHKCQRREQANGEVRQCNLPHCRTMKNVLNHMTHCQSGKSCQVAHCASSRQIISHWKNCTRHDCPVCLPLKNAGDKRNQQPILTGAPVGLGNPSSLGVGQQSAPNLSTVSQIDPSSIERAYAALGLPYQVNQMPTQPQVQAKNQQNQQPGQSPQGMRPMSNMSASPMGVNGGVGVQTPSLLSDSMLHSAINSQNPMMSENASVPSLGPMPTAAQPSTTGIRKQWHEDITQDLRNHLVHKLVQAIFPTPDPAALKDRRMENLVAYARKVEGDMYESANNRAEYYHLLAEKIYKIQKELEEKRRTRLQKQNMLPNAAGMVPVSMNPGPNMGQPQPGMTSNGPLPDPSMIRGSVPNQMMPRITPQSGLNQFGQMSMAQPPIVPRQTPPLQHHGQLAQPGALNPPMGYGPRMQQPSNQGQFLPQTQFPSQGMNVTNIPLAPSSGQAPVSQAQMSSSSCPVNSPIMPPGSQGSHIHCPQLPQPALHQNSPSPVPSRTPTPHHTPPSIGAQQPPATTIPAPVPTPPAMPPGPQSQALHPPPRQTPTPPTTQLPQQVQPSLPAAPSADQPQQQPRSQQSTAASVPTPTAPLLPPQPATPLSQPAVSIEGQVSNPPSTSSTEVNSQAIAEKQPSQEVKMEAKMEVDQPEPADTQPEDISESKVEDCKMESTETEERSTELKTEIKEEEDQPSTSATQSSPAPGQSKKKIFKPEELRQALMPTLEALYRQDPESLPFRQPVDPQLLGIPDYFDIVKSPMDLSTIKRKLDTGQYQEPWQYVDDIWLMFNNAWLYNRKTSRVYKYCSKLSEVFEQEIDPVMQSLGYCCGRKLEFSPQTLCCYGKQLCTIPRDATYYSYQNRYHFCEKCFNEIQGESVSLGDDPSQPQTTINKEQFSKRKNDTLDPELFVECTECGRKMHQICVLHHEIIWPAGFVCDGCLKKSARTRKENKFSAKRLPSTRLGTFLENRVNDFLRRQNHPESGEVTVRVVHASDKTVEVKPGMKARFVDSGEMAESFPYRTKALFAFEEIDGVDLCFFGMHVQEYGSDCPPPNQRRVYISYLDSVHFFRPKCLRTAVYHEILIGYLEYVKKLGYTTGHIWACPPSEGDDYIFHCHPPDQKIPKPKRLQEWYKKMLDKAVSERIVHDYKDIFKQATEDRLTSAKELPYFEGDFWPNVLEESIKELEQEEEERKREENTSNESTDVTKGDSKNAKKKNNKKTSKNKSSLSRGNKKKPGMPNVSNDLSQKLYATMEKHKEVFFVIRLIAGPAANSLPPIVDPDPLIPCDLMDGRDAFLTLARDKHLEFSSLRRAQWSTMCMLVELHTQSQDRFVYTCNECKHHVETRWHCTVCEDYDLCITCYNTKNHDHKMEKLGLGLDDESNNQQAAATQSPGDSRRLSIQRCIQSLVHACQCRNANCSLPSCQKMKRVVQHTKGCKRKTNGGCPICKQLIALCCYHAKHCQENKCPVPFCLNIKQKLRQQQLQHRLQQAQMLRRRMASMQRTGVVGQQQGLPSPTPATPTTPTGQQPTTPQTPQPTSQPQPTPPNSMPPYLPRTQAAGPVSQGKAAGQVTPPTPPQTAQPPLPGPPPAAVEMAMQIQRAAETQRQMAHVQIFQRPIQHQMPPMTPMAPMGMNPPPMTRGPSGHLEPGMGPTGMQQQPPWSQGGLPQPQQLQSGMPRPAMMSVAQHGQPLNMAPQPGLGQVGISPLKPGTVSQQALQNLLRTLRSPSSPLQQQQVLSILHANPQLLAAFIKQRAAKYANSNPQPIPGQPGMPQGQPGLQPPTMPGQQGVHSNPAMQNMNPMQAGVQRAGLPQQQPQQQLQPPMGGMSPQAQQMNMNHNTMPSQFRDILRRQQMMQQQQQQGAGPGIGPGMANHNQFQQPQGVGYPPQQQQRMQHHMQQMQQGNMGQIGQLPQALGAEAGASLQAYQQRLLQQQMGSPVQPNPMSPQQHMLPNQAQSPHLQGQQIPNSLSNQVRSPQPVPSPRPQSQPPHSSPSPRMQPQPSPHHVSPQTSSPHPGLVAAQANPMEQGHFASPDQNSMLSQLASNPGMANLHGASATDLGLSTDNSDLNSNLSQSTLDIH

| Compound | IC50 [1] [nM] | ΔTm [2] [°C] | IC50 [3] [nM] | IC50 [4] [nM] | IC50 (MV4-11 [5]) [nM] | other results |
| --- | --- | --- | --- | --- | --- | --- |
| Cc1cc(-c2cc(NS(C)(=O)=O)ccc2Sc2ccccc2)n2cc[nH]c(=O)c12 | > 100000 | > 1 | – | – | – | – |
| Cc1cc(-c2cc(S(C)(=O)=O)ccc2Oc2ccc(F)cc2F)n2cc[nH]c(=O)c12 | > 33000 | > 1 | 134 | 117 | – | – |
| Cc1cc(-c2cc(NS(C)(=O)=O)ccc2OC2CCCCC2)n2cc[nH]c(=O)c12 | 5400 | > 1 | – | – | 4.9 | Microsomal intrinsic clearance [6]: 752 mL/min/g; Intrinsic clearance [7]: 2137 mL/min/g; Microsomal intrinsic clearance [8]: 333 mL/min/g; half-life at 0.1 µM [9]: 2.7 min; half-life at 0.1 µM [10]: 0.9 min; half-life at 0.1 µM [11]: 6.3 min |
| Cc1cc(-c2cc(CS(C)(=O)=O)ccc2Oc2ccc(F)cc2F)n2cc[nH]c(=O)c12 | 16500 | > 1 | – | – | 14.8 | Microsomal intrinsic clearance [6]: 115 mL/min/g; Intrinsic clearance [7]: 112 mL/min/g; Microsomal intrinsic clearance [8]: 380 mL/min/g; half-life at 0.1 µM [9]: 18.2 min; half-life at 0.1 µM [10]: 18.8 min; half-life at 0.1 µM [11]: 5.5 min |
| Cc1cc(-c2ccccc2Oc2ccccc2)n2cc[nH]c(=O)c12 | – | > 1 | 4500 | 1600 | – | – |
| Cc1cc(-c2cc(NS(C)(=O)=O)ccc2Oc2ccccn2)n2cc[nH]c(=O)c12 | 12600 | > 1 | 27.3 | 25.9 | 211 | – |
| Cc1sc2c(c1C)C(c1ccc(Cl)cc1)=N[C@@H](CC(N)=O)c1nnc(C)n1-2 | – | – | – | – | – | IC50 [12]: 92 to 112 nM |
| CCS(=O)(=O)Cc1ccc(Oc2ccc(F)cc2F)c(-c2cc(C)c3c(=O)[nH]ccn23)c1 | 18600 | > 1 | 4.7 | 7.4 | 6.5 | Microsomal intrinsic clearance [6]: 46 mL/min/g; Intrinsic clearance [7]: 61.9 mL/min/g; Microsomal intrinsic clearance [8]: 175 mL/min/g; half-life at 0.1 µM [9]: 46.3 min; half-life at 0.1 µM [10]: 33.9 min; half-life at 0.1 µM [11]: 12 min |
| Cc1cc(-c2cc(S(=O)(=O)NC(C)(C)C)ccc2Oc2ccc(F)cc2F)n2cc[nH]c(=O)c12 | > 100000 | > 1 | 438 | 420 | – | – |
| Cc1cc(-c2cc(NS(C)(=O)=O)cnc2Oc2ccc(F)cc2F)n2cc[nH]c(=O)c12 | > 5000 | > 1 | – | – | 537 | – |
| CC(=O)Nc1ccc(Oc2ccc(F)cc2F)c(-c2cc(C)c3c(=O)[nH]ccn23)c1 | > 100000 | > 1 | 219 | 97.9 | – | – |
| Cc1cc(-c2cc(NS(C)(=O)=O)ccc2Oc2ccccc2)n2c1C(=O)NCC2 | 34700 | – | 76 | 130 | – | – |
| Cc1cc(-c2cc(NS(C)(=O)=O)ccc2Cc2ccccc2)n2cc[nH]c(=O)c12 | 15600 | > 1 | > 1000 | > 1000 | – | – |
| Cc1cc(-c2cc(S(C)(=O)=O)cnc2Oc2ccc(F)cc2F)n2cc[nH]c(=O)c12 | > 33000 | > 1 | 288 | 229 | – | – |
| Cc1cc(-c2cc(NS(C)(=O)=O)ccc2Oc2ccc(F)cc2F)n2cc[nH]c(=O)c12 | 17800 | > 1 | – | – | 36.6 | Microsomal intrinsic clearance [6]: 36.2 mL/min/g; Intrinsic clearance [7]: 327 mL/min/g; Microsomal intrinsic clearance [8]: 141 mL/min/g; half-life at 0.1 µM [9]: 58.1 min; half-life at 0.1 µM [10]: 6.4 min; half-life at 0.1 µM [11]: 14.9 min |
| Cc1cc(-c2cc(NS(C)(=O)=O)ccc2Oc2ccc(Cl)cc2)n2cc[nH]c(=O)c12 | 57000 | > 1 | 128 | 178 | 118 | – |

| Compound | IC50 [1] [nM] | ΔTm [2] [°C] | IC50 [3] [nM] | IC50 [4] [nM] | IC50 (MV4-11 [5]) [nM] | other results |
| --- | --- | --- | --- | --- | --- | --- |
| Cc1sc2c(c1C)C(c1ccc(Cl)cc1)=N[C@@H](CC(=O)Nc1ccc(O)cc1)c1nnc(C)n1-2 [BIRABRESIB] | > 33000 | – | – | – | 46.3 | IC50 (Kasumi 1): 135 nM; IC50 (RS4-11): 416 nM; IC50 (MM1.S): 137 nM; Activity (MV4-11 [13]): Active; inhibition in vivo at 50 mg/kg (MV4-11 [14]): 62.3% |
| CCS(=O)(=O)Nc1ccc(Oc2ccc(F)cc2F)c(-c2cn(C)c(=O)c3[nH]ccc23)c1 [MIVEBRESIB] | 63 | > 1 | – | 2.7 | 1.9 | IC50 (Kasumi 1): 6.3 nM; IC50 (RS4-11): 6.4 nM; IC50 (MM1.S): 6.5 nM |
| Cc1cc(-c2cc(NS(C)(=O)=O)ccc2OCC2CC2)n2cc[nH]c(=O)c12 | 25100 | > 1 | 78.6 | 77.2 | 185 | – |
| Cc1cc(-c2cc(NS(C)(=O)=O)ccc2Nc2ccccc2)n2cc[nH]c(=O)c12 | > 33000 | > 1 | 68 | 28.4 | 257 | – |
| Cc1cc(-c2cc(CS(C)(=O)=O)cnc2Oc2ccc(F)cc2F)n2cc[nH]c(=O)c12 | 2200 | > 1 | 7.4 | 3.5 | 14.2 | Microsomal intrinsic clearance [6]: 26.1 mL/min/g; Intrinsic clearance [7]: 64.6 mL/min/g; Microsomal intrinsic clearance [8]: 35.7 mL/min/g; half-life at 0.1 µM [9]: 80.4 min; half-life at 0.1 µM [10]: 32.5 min; half-life at 0.1 µM [11]: 58.5 min; half-life [15]: 90 min; Cmax [16]: 160 ng/mL; AUC(0-t) [17]: 520 ng·h/mL; bioavailability [18]: 37.9%; half-life [19]: 48 min; Vd [20]: 1.9 L/kg; AUC(0-t) [21]: 457 ng·h/mL; clearance [22]: 37.5 mL/min/kg |
| CCS(=O)(=O)Nc1ccc(Oc2ccc(F)cc2F)c(-c2cc(C)c3c(=O)[nH]ccn23)c1 | 4000 | > 1 | – | – | 14.5 | Microsomal intrinsic clearance [6]: 62 mL/min/g; Intrinsic clearance [7]: 264 mL/min/g; Microsomal intrinsic clearance [8]: 229 mL/min/g; half-life at 0.1 µM [9]: 33.9 min; half-life at 0.1 µM [10]: 7.9 min; half-life at 0.1 µM [11]: 9.1 min |
| CC(=O)C[C@@H]1N=C(c2ccc(Cl)cc2)c2c(sc(C)c2C)-n2c(C)nnc21 | – | – | – | – | – | IC50 [23]: 77 nM |
| Cc1cc(Br)n2cc[nH]c(=O)c12 | – | 1.9 | – | – | – | – |
| Cc1cc(-c2cc(S(=O)(=O)N(C)C)ccc2Oc2ccc(F)cc2F)n2cc[nH]c(=O)c12 | > 100000 | > 1 | 198 | 71.3 | – | – |
| Cc1cc(-c2cc(NS(C)(=O)=O)ccc2Oc2ccccc2)n2cc[nH]c(=O)c12 | 25100 | > 1 | – | – | 20.4 | Microsomal intrinsic clearance [6]: 74 mL/min/g; Intrinsic clearance [7]: 3039 mL/min/g; Microsomal intrinsic clearance [8]: 116 mL/min/g; half-life at 0.1 µM [9]: 28.4 min; half-life at 0.1 µM [10]: 0.7 min; half-life at 0.1 µM [11]: 18.1 min |
| Cc1cc(-c2cc(S(=O)(=O)N(C)C)cnc2Oc2ccc(F)cc2F)n2cc[nH]c(=O)c12 | > 100000 | > 1 | 740 | 772 | – | – |
| Cc1cc(-c2cc(NS(C)(=O)=O)ccc2OCC(C)(C)C)n2cc[nH]c(=O)c12 | 26900 | > 1 | > 1000 | 669 | – | – |
| Cc1cc(-c2cc(S(=O)(=O)NC(C)(C)C)cnc2Oc2ccc(F)cc2F)n2cc[nH]c(=O)c12 | > 100000 | > 1 | 788 | 478 | – | – |
| Cc1cc(-c2cc(NS(C)(=O)=O)ccc2Oc2ccccc2)n2ccn(C)c(=O)c12 | – | > 1 | > 2000 | > 2000 | – | – |
| Cc1cc(-c2cc(NS(C)(=O)=O)ccc2OC2CCOCC2)n2cc[nH]c(=O)c12 | > 33000 | > 1 | – | – | 387 | – |
